# According to PMC9781652, “Dinuclear Iron Complexes of Iminopyridine-Based Ligands as Selective Cytotoxins for Tumor Cells and Inhibitors of Cancer Cell Migration” (Pharmaceutics, 2022):
# Columns and labels:
# [1] = system: CCD-18Co human colon fibroblasts; experiment: Cell proliferation assay (MTT), non-tumor CCD-18Co; type: cell-based; details: non-tumor cells, 72 h exposure, mean ± SE
# Method: (§1) Cells were seeded into 96-well plates at densities of 1500 cells per well for OVCAR-8, 1900 for NCI-H460, and 4000 for CCD-18Co. After 24 h of incubation, they were treated for 72 h with different concentrations of the compounds (concentration range: 0.01 to 6 μM for OVCAR-8; 0.05 to 2 μM for NCI-H460; and 0.07 to 70 μM for CCD-18Co cells). When indicated, cells were also incubated with 30 µM of the ROS scavenger Manganese (III) 5,10,15,20-tetrakis (4-benzoic acid) porphyrin (MnTBAP) (Calbiochem, San Diego, CA, USA). Cell viability was measured using the MTT assay as previously described. The IC50 value corresponds to the concentration of the assayed compound that is required to inhibit the cell proliferation by 50%, and was calculated by linear interpolation from the obtained growth curves. All data are reported as the mean ± standard error (SE) calculated from at least three independent experiments with three replicates in each.
# [2] = system: OVCAR-8 human ovarian carcinoma cells; experiment: Cell proliferation assay (MTT), OVCAR-8; type: cell-based; details: for IC50: 72 h exposure, MTT, mean ± SE; for SI OVCAR-8 (selectivity index): ratio IC50 CCD-18Co / IC50 OVCAR-8
# Method: as §1
# [3] = system: NCI-H460 human lung carcinoma cells; experiment: Cell proliferation assay (MTT), NCI-H460; type: cell-based; details: for IC50: 72 h exposure, MTT, mean ± SE; for SI NCI-H460 (selectivity index): ratio IC50 CCD-18Co / IC50 NCI-H460
# Method: as §1
# NCI-H460 cells [4] = experiment: Apoptosis analysis, Annexin V-Alexa Fluor 488/PI flow cytometry, NCI-H460; type: cell-based, human; details: NCI-H460, 0.64 µM, 72 h
# Method: (§2) Quantitative analysis of apoptotic cell death caused by compound 10 treatment was carried out by flow cytometry using the Alexa Fluor 488 annexin V/PI Vybrant Apoptosis Assay Kit (Molecular Probes, Eugene, OR, USA) as previously described. Briefly, NCI-H460 cells (7 × 10^4 per well) and OVCAR-8 cells (8 × 10^4 per well) were seeded into 6-well plates and then treated with compound 10 (0.64 μM for NCI-H460 and 1.65 μM for OVCAR-8) for 72 h in serum starved medium. After treatment, we collected attached and floating cells, washed them in cold PBS and stained them for 15 min in the dark with Annexin V-Alexa Fluor 488 and propidium iodide (PI) at room temperature. Cells were analyzed using NovoCyte Flow Cytometer (ACEA Biosciences, San Diego, CA, USA) and NovoExpress software (ACEA Biosciences, San Diego, CA, USA). At least 10,000 cells within the gated region were analyzed.
# [5] = system: MDA-MB-231 human breast carcinoma cells; experiment: Cytotoxicity on MDA-MB-231; type: cell-based
# supercoiled pUC18 DNA = experiment: DNA interaction analysis by agarose gel electrophoresis; type: biochemical; details: highest concentrations, 24 h, 37 °C, with H2O2
# Method: The interaction of DNA with the compounds was monitored in an agarose gel electrophoresis as previously described. […] Two other samples were included in the assays: a sample of pUC18 DNA alone as negative control and a sample of pUC18 DNA with 5 µg/mL cisplatin for comparison purposes. […] Gels were stained with ethidium bromide (1 µg/mL in TBE) for 15 min and DNA bands were visualized under UV light.
# MDA-MB-231 cells = experiment: Transwell cell migration assay; type: cell-based, human; details: 0.1 µM, 24, 48 or 72 h
# Method: MDA-MB-231 cells were seeded into the upper chamber of a 24-well transwell insert (8 µm pore size; Sarstedt, Nümbrecht, Germany) at a density of 12,000 cells/0.5 mL RPMI 1640 medium with 0.5% FBS and treated with 0.1 µM compound 10 (corresponding to an IC20). The lower chamber was filled with 0.5 mL RPMI 1640 medium with 10% FBS as a chemoattractant. The cells on the upper side of the inserts were removed with a cotton swab after 24, 48, or 72 h of incubation at 37 °C. Cells that migrated to the lower side of the inserts were fixed for 30 min with 4% paraformaldehyde and stained for 20 min at room temperature with 0.2% crystal violet solution. Ten randomly selected fields at 200× magnification were counted using an Olympus CKX41 inverted microscope (Tokyo, Japan).
# OVCAR-8 cells [6] = experiment: Cell cycle phase analysis (PI flow cytometry), OVCAR-8; type: cell-based, human; details: OVCAR-8, 0.8 µM, 72 h
# Method: (§3) NCI-H460 and OVCAR-8 cells were treated for 72 h with compound 10 (0.3 μM for NCI-H460 and 0.8 μM for OVCAR-8). Then, they were collected and fixed at −20 °C with 70% ethanol for at least 1 h. Fixed cells washed with cold PBS were resuspended in PBS at a cell density of 1–2 × 10^6 cells/mL, treated at 37 °C for 30 min with ribonuclease A (100 μg/mL) and PI (40 μg/mL) (Molecular Probes, Eugene, OR, USA), and analyzed by flow cytometric. At least 10,000 cells within the gated region were analyzed on a NovoCyte Flow Cytometer (ACEA Biosciences, San Diego, CA, USA). Cell cycle distribution was analyzed using NovoExpress software (ACEA Biosciences, San Diego, CA, USA).
# NCI-H460 cells [7] = experiment: Flow cytometric analysis of ROS generation (carboxy-H2DCFDA), NCI-H460; type: cell-based, human; details: NCI-H460, 0.7, 1.5 or 3 µM, 48 or 72 h
# Method: (§4) ROS generation after treatment with the compounds was analyzed using a carboxy-20, 70-dichlorodihydrofluorescein diacetate probe (carboxy-H2DCFDA) (Invitrogen, Waltham, MA). ROS species oxidize this molecule to green fluorescent dichlorofluorescein (DCF), allowing their detection inside the cells using a flow cytometer. A total of 24 h prior to treatments cells were seeded at 70,000 cells/well in 6-well plates in phenol red-free RPMI. Then, they were treated for 48 or 72 h at 37 °C with different concentrations of compound 10 (0.7, 1.5, or 3 μM for NCI-H460 cells and 2, 4.5, or 9 μM for OVCAR-8 cells) for 48 or 72 h at 37 °C. After treatments, cells were washed with PBS and incubated for 30 min at 37 °C in the dark with either 1 μM (NCI-H460 cells) or 0.5 μM (OVCAR-8 cells) carboxy-H2DCFDA diluted in PBS. Cells were then collected with phenol red-free trypsin and analyzed using a NovoCyte Flow cytometer. NovoExpress software (ACEA Biosciences, San Diego, CA, USA) was used to stablish the geometric mean fluorescence intensity of 10,000 cells.
# NCI-H460 cells [8] = experiment: Cell cycle phase analysis (PI flow cytometry), NCI-H460; type: cell-based, human; details: NCI-H460, 0.3 µM, 72 h
# Method: as §3
# OVCAR-8 cells [9] = experiment: Flow cytometric analysis of ROS generation (carboxy-H2DCFDA), OVCAR-8; type: cell-based, human; details: OVCAR-8, 2, 4.5 or 9 µM, 48 or 72 h
# Method: as §4
# OVCAR-8 cells [10] = experiment: Apoptosis analysis, Annexin V-Alexa Fluor 488/PI flow cytometry, OVCAR-8; type: cell-based, human; details: OVCAR-8, 1.65 µM, 72 h
# Method: as §2
structure (smiles),measurement,setting,value
"CC#N.CC#N.CC#N.CC#N.Cc1cc(N=Cc2ccc(Br)cn2)c2c(c1)C1CC(O2)Oc2c(N=Cc3ccc(Br)cn3)cc(C)cc21.Cc1cc(N=Cc2ccc(Br)cn2)c2c(c1)C1CC(O2)Oc2c(N=Cc3ccc(Br)cn3)cc(C)cc21.F[B-](F)(F)F.F[B-](F)(F)F.F[B-](F)(F)F.F[B-](F)(F)F.[Fe+2].[Fe+2] [Compound 9, [Fe23_2(CH3CN)4](BF4)4]",IC50,[1],7200 ± 3400 nM
same,IC50,[2],1780 ± 160 nM
same,SI OVCAR-8 (selectivity index),[2],4.1
same,IC50,[3],600 ± 40 nM
same,SI NCI-H460 (selectivity index),[3],12.0
"CC#N.CC#N.CC#N.CC#N.Cc1cc(N=Cc2cccc(C)n2)c2c(c1)C1CC(O2)Oc2c(N=Cc3cccc(C)n3)cc(C)cc21.Cc1cc(N=Cc2cccc(C)n2)c2c(c1)C1CC(O2)Oc2c(N=Cc3cccc(C)n3)cc(C)cc21.F[B-](F)(F)F.F[B-](F)(F)F.F[B-](F)(F)F.F[B-](F)(F)F.[Fe+2].[Fe+2] [Compound 10, [Fe2(4)2(CH3CN)4](BF4)4]",percentage of cells that enter in apoptosis (early + late),NCI-H460 cells [4],about 82%
same,Early apoptotic cells (%),NCI-H460 cells [4]; serum starved medium,13.72 ± 4.34%
same,Late apoptotic cells (%),NCI-H460 cells [4]; serum starved medium,68.61 ± 3.04%
same,Necrotic cells (%),NCI-H460 cells [4]; serum starved medium,1.29 ± 0.27%
same,Viable cells (%),NCI-H460 cells [4]; serum starved medium,16.37 ± 2.32%
same,IC50,[5]; MDA-MB-231 cells,250 nM
same,"fold lower IC50 than that described for cisplatin, MDA-MB-231",[5]; cisplatin value from literature,about 250 fold
same,IC20,"[5]; concentration used in migration assay, corresponding to an IC20",100 nM
same,Effect on pUC18 DNA in the presence of H2O2 at the highest concentrations,supercoiled pUC18 DNA,total DNA degradation
same,IC50,[1],21600 ± 3180 nM
same,Migration of MDA-MB-231 cells,MDA-MB-231 cells,significantly reduces the migration
same,IC50,[2],1650 ± 260 nM
same,Cellular viability with vs without ROS scavenger MnTBAP,"[2]; OVCAR-8, MTT, 30 µM MnTBAP",MnTBAP reduces the antiproliferative effect
same,SI OVCAR-8 (selectivity index),[2],13.1
same,% G0/G1,OVCAR-8 cells [6],41.91%
same,% G2/M,OVCAR-8 cells [6],28.36%
same,% S,OVCAR-8 cells [6],23.09%
same,% Sub-G1,OVCAR-8 cells [6],6.61%
same,Effect on cell cycle phase distribution vs untreated cells,OVCAR-8 cells [6],shift in the cell population from the G0/G1 phase to the S and G2/M phases
same,ROS levels (fold-increase vs control),NCI-H460 cells [7],ROS levels rise with time and concentration
same,% G0/G1,NCI-H460 cells [8],57.62%
same,% G2/M,NCI-H460 cells [8],15.58%
same,% S,NCI-H460 cells [8],21.71%
same,% Sub-G1,NCI-H460 cells [8],5.10%
same,Effect on cell cycle phase distribution vs untreated cells,NCI-H460 cells [8],do not show significant changes in the cell cycle phase distribution
same,IC50,[3],640 ± 50 nM
same,SI NCI-H460 (selectivity index),[3],33.7
same,ROS levels (fold-increase vs control),OVCAR-8 cells [9],ROS levels rise with time and concentration
same,percentage of cells that enter in apoptosis (early + late),OVCAR-8 cells [10],~66%
same,Early apoptotic cells (%),OVCAR-8 cells [10]; serum starved medium,36.12 ± 2.32%
same,Late apoptotic cells (%),OVCAR-8 cells [10]; serum starved medium,30.82 ± 2.60%
same,Necrotic cells (%),OVCAR-8 cells [10]; serum starved medium,1.27 ± 0.08%
same,Viable cells (%),OVCAR-8 cells [10]; serum starved medium,31.79 ± 3.27%
"CC#N.CC#N.CC#N.CC#N.COc1cccc(C=Nc2cc(C)cc3c2OC2CC3c3cc(C)cc(N=Cc4cccc(OC)n4)c3O2)n1.COc1cccc(C=Nc2cc(C)cc3c2OC2CC3c3cc(C)cc(N=Cc4cccc(OC)n4)c3O2)n1.F[B-](F)(F)F.F[B-](F)(F)F.F[B-](F)(F)F.F[B-](F)(F)F.[Fe+2].[Fe+2] [Compound 11, [Fe25_2(CH3CN)4](BF4)4]",IC50,[1],12000 ± 1440 nM
same,IC50,[2],1400 ± 300 nM
same,SI OVCAR-8 (selectivity index),[2],8.6
same,IC50,[3],500 ± 100 nM
same,SI NCI-H460 (selectivity index),[3],24.1
"CC#N.CC#N.CC#N.CC#N.Cc1cc(N=Cc2ccc3ccccc3n2)c2c(c1)C1CC(O2)Oc2c(N=Cc3ccc4ccccc4n3)cc(C)cc21.Cc1cc(N=Cc2ccc3ccccc3n2)c2c(c1)C1CC(O2)Oc2c(N=Cc3ccc4ccccc4n3)cc(C)cc21.F[B-](F)(F)F.F[B-](F)(F)F.F[B-](F)(F)F.F[B-](F)(F)F.[Fe+2].[Fe+2] [Compound 12, [Fe26_2(CH3CN)4](BF4)4]",Effect on pUC18 DNA in the presence of H2O2 at the highest concentrations,supercoiled pUC18 DNA,total DNA degradation
same,IC50,[1],4050 ± 620 nM
same,IC50,[2],1240 ± 270 nM
same,SI OVCAR-8 (selectivity index),[2],3.2
same,IC50,[3],490 ± 80 nM
same,SI NCI-H460 (selectivity index),[3],8.1
